The record followed here is paper PMC10609273, “Radiosynthesis and Early Evaluation of a Positron Emission Tomography Imaging Probe [^18F]AGAL Targeting Alpha-Galactosidase A Enzyme for Fabry Disease” (Molecules, 2023).

Read-outs that look alike come from different tables or passages of the source.

Holding throughout (format): in vitro ADME
One data set deals with T1, CYP2B6 (Homo sapiens, UniProt P20813).
T1 construct: from tissue; host or cells: pooled human liver microsomes (n = 200)
T1 sequence (P20813 1-491): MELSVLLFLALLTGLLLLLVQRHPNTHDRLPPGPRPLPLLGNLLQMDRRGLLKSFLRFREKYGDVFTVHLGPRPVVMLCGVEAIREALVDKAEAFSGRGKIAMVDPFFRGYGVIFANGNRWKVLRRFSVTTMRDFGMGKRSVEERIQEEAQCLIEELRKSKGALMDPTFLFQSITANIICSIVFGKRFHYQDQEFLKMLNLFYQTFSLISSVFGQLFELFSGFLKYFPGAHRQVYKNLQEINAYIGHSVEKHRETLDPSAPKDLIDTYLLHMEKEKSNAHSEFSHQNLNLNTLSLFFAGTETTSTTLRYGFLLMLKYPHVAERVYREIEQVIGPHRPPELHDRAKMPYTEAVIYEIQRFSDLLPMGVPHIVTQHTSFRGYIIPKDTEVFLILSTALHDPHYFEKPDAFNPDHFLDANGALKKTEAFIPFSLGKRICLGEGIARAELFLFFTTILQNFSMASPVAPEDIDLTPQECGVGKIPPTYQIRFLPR
The data set can be described thus: Reversible CYP inhibition in pooled HLMs. To be noted: 30 µM compound, substrate bupropion. How it is done:
All chemicals and reagents including control compounds were purchased from commercial sources such as Sigma-Aldrich or Toronto Research Chemicals. The test article was tested for reversible inhibition of CYPs in human liver microsomes (HLM) (0.2 mg/mL protein) at a concentration range of 0–30 μM. Each condition was incubated in duplicate. The test article (0–30 μM), NADPH, and the CYP-selective probe substrate were incubated in a 96-well plate at 37 °C in 0.1 M potassium phosphate buffer, pH 7.4. The reactions were initiated by adding the HLMs. The total reaction volume was 100 μL.
After the incubation period (10 min for CYP1A2, 2B6, and 2C9; 15 min for CYP2C19; and 4 min for CYP2C8 and 2D6 to accommodate linear kinetic conditions) at 37 °C, the reactions were terminated by the addition of 100 μL of ice-cold acetonitrile-containing carbutamide as an IS, then centrifuged at 2500× g for 10 min at 2 °C. A 150 μL aliquot of supernatant for each CYP assay, except for CYP1A2, was then transferred to a new plate for analysis. For CYP1A2, 80 μL of supernatant was transferred to the plate and further diluted with 80 μL of water before analysis. All samples were analyzed with liquid chromatography with tandem mass spectrometry (LC–MS/MS).

A further data set concerns P-gp. As to the kind of experiment: Bidirectional permeability in Caco-2 cells. The following applies: human, Caco-2, with LY335979 5 µM. How it is done:
(§1) The Caco-2 cell culture and bidirectional permeability assays used in the study were adapted from previous studies at Takeda. Briefly, Caco-2 cells were obtained from American Type Culture Collection (ATCC) (Manassas, VA, USA) and were cultured in 175 cm^2 tissue culture T-flasks (Corning Life Sciences, Corning, NY, USA). For bidirectional permeability assays, cells were plated onto Costar 24-well culture plates (0.33 cm^2/well, […] (Corning Life Sciences, Corning, NY, USA) by adding 1 × 10^5 cells suspended in 0.2 mL of culture medium (Dulbecco’s modified Eagle’s medium [DMEM] with 0.1 mM non-essential amino acids, 2 mM L-glutamine, 4.5 g/L glucose, and 10% fetal bovine serum [FBS]) to the upper chamber of each well of the 24-well transwell plate. Cell-free culture medium (40 mL) was added to the lower chamber reservoir (Corning Life Sciences, Corning, NY, USA). The transwell plates were then incubated at 37 °C in an atmosphere of 5% CO2 for 25 days to ensure complete enterocyte-like differentiation of the cells, and the culture medium was changed every three to four days during the incubation period. Cell monolayers with transepithelial electrical resistance (TEER) values > 250 ohms × cm^2 were used for the bidirectional permeability assays.
(§2) All chemicals and reagents including control compounds were purchased from commercial sources such as Sigma-Aldrich or synthesized in house (pevonedistat and LY335979). Bidirectional transport studies were performed at 37 °C. Before each experiment, the confluent cell monolayers on transwell inserts were washed and equilibrated for 30 min with transport media (Hank’s Balanced Salt Solution [HBSS] containing 25 mM 4-(2-hydroxyethyl)-1-piperazineethanesulfonic acid [HEPES] and 10 mM glucose, pH 7.4 or 6.5). The bidirectional permeability of 5 µM of the cyclohexane derivative was assessed alone or in the presence of 5 µM LY335979, 5 µM K0143, or 10 µM Elacridar to inhibit P-gp, BCRP, and both efflux transporters, respectively. Additionally, the bi-directional permeability of 5 µM solutions of nadolol (low permeable control marker), minoxidil (high permeable marker), propranolol (high permeable marker), and pevonedistat (efflux transporter control) was also assessed. The experiment was initiated by adding a solution containing the test compounds and LY335979 to either the apical (for apical-to-basolateral [A-to-B] transport) or basolateral (for basolateral-to-apical [B-to-A] transport) compartment. Lucifer yellow (50 µM) was added to each donor chamber in the experiment to serve as a paracellular transport control and to monitor cell monolayer integrity. The apical volume was 0.2 mL and the basolateral volume was 1.0 mL. Bovine serum albumin (BSA, Sigma Aldrich) (5%) was added to the transport media on the receiver side to prevent non-specific binding of the test compound to the polystyrene well. After the addition of test compound into the donor side, […] of the receiving solution were withdrawn from the receiver side at 30 and 60 min. A […] of fresh transport media was immediately added to the receiver side at 30 and 60 min. The samples were placed into 96-well black plates (PerkinElmer Life Sciences, Boston, MA, USA) for fluorescence measurement (excitation at 450 nm and emission at 535 nm). After this measurement, the amounts of cyclohexane derivative and control compounds in each sample were quantified with liquid chromatography–mass spectrometry (LC–MS). The time course of drug transported across cell monolayers was analyzed to determine the time and rate of steady-state flux. The transport rate (total amount of drug present in the receiver chamber per unit time), Papp, and efflux ratio were calculated as described in Equations (4) and (5). […]
Background: Caco-2 cells form a polarised layer with tight junctions and transporters.

The test system of a further data set is BCRP. As to the kind of experiment: Bidirectional permeability in Caco-2 cells. The following applies: human. On the procedure: as §1, §2
Data set [1] can be described thus: Bidirectional permeability in Caco-2 cells. To be noted: human, Caco-2, 5 µM, alone. On the procedure:
as §1, §2

The subject of a further data set is P-gp and BCRP. The data set can be described thus: Bidirectional permeability in Caco-2 cells. To be noted: human, Caco-2, with Elacridar (GF918) 10 µM, 5 µM, + 10 µM Elacridar (GF918) (dual inhibitor of P-gp and BCRP). On the procedure:
as §1, §2

[2] abbreviates: 5 µM, + 5 µM LY335979 (P-gp inhibitor).
[3] abbreviates: Caco-2, with KO143 5 µM, 5 µM, + 5 µM KO143 (BCRP inhibitor).
Where [4] appears, read: read-out: Ratio (B/A), efflux ratio.

With `O=C(CCCCCCCn1cc(CCCF)nn1)N1[C@@H]2[C@H](O)[C@@H](O)[C@@H](O)[C@@H](CO)[C@@H]21` [AGAL], the “reversible inhibition of CYP2B6 activity” value on CYP2B6 was “no significant loss of CYP activity”. Moreover, the efflux ratio at 60 min, 5 µM in the data set with P-gp (by P-gp inhibitor LY335979, read-out: reduction of the efflux ratio) was 3; with P-gp (5 µM, + 5 µM LY335979 (P-gp inhibitor), read-out: Ratio (B/A), efflux ratio), 3.9; in the data set with BCRP (Caco-2, with K0143 5 µM, by BCRP inhibitor K0143, read-out: reduction of the efflux ratio), 1.4; in the data set on BCRP (Caco-2, with KO143 5 µM, 5 µM, + 5 µM KO143 (BCRP inhibitor), read-out: Ratio (B/A), efflux ratio) it was 8.7; in data set [1] (setting [4]) it was 12; in the data set with P-gp and BCRP (setting [4]), 2.9. The Papp A→B at 60 min, 5 µM in the data set with P-gp (setting [2]) stood at 0.25 ×10⁻⁶ cm/s; in the data set on BCRP (setting [3]) it was 0.15 ×10⁻⁶ cm/s; in data set [1], 0.11 ×10⁻⁶ cm/s; in the data set on P-gp and BCRP, 0.25 ×10⁻⁶ cm/s. Also, the Papp B→A at 60 min, 5 µM in the data set on P-gp (setting [2]) was 0.95 ×10⁻⁶ cm/s; in the data set with BCRP (setting [3]) it was 1.31 ×10⁻⁶ cm/s; in data set [1], 1.36 ×10⁻⁶ cm/s; with P-gp and BCRP it was 0.74 ×10⁻⁶ cm/s.

What is called Papp A→B is the apparent permeability from the apical to the basolateral side of a cell layer. As a reminder, the Papp B→A is the apparent permeability from the basolateral to the apical side of a cell layer.
